From PMC12390684 (Viruses, 2025)

Target: IN-GCN2 interaction (6xHis-IN / GST-GCN2) (UniProt P04585+Q9P2K8)
Assay: biochemical
Type: binding, HIV-1 IN; human GCN2
Settings: for IN-GCN2 interaction (%): screen, single dose 100 µM, single replicate, residual AlphaLISA signal normalized to DMSO control; for AlphaLISA signal in dose-response: compared to DMSO

Sequence of IN-GCN2 interaction (6xHis-IN / GST-GCN2) (Q9P2K8 192-1024, other chains not shown): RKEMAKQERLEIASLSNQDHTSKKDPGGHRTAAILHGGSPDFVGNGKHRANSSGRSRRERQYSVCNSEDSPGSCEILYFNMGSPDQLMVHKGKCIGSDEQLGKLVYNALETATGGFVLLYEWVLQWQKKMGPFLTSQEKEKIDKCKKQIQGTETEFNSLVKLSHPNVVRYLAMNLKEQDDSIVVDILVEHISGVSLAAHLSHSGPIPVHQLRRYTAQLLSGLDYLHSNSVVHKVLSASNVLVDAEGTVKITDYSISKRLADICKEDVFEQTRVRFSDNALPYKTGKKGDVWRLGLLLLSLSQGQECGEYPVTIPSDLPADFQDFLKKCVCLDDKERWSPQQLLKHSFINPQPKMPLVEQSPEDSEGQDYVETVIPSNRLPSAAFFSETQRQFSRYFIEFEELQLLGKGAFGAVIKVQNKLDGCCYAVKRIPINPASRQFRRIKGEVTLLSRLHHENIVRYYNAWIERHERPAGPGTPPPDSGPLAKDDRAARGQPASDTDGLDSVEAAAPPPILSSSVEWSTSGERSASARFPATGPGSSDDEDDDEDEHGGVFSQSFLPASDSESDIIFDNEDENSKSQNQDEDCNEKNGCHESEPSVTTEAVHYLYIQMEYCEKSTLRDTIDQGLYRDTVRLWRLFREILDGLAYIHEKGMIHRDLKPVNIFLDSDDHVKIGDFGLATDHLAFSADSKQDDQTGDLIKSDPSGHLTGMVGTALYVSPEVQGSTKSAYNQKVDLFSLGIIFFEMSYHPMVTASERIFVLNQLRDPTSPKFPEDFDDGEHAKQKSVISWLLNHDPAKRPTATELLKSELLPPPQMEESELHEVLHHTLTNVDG

Compound	IN-GCN2 interaction (%)	other results
N#Cc1cn([C@@H]2O[C@H](CO)[C@@H](O)[C@H]2O)c2ncnc(N)c12 [NSC63701]		IN-GCN2 interaction (%) (listed as 63701): 116.97%
CC[C@H]1OC(=O)[C@H](C)[C@@H](OC2CC(C)(OC)C(O)C(C)O2)[C@H](C)[C@@H](OC2OC(C)CC(N(C)C)C2OC(=O)CCC2CCCC2)[C@](C)(O)C[C@@H](C)C(=O)[C@H](C)[C@@H](O)[C@]1(C)O (stereo partly drawn) [NSC63946]	43.14	
CC(C)[C@]12CC(=O)[C@@H](C)[C@H]1C2 [NSC67392]	80.58	
CC[C@]1(O)C[C@H]2CN(CCc3c([nH]c4ccccc34)[C@@](C(=O)OC)(c3cc4c(cc3OC)N(C=O)[C@H]3[C@@](O)(C(=O)OC)[C@H](OC(C)=O)[C@]5(CC)C=CCN6CC[C@]43[C@@H]65)C2)C1 [NSC67574]	113.01	
COc1ccc2[nH]c3c(C)c4ccncc4c(C)c3c2c1 [NSC69187]	42.76	
CC1=C(O)C(=O)C=C2C1=CC=C1[C@@]2(C)CC[C@@]2(C)[C@@H]3C[C@](C)(C(=O)O)CC[C@]3(C)CC[C@]12C [NSC70931]	100.77	
Cc1c2ccncc2c(C)c2c1[nH]c1ccccc12 [NSC71795]	107.18	
COC(=O)[C@@H]1[C@H]2C[C@@H]3c4[nH]c5ccccc5c4CCN3C[C@@H]2CC[C@@H]1O [NSC72116]	99.30	
COC(=O)[C@H]1[C@H]2C[C@@H]3c4[nH]c5ccccc5c4CCN3C[C@H]2C[C@@H](OC(=O)c2cc(OC)c(OC)c(OC)c2)[C@@H]1OC [NSC72138]	30.11	
COC(=O)C1=COC(C)C2CN3CCc4c([nH]c5cc(OC)c(OC)cc45)C3CC12.O=C(O)CC(O)(CC(=O)O)C(=O)O (stereo not drawn) [NSC72715]	63.54	
C[N+]1([O-])[C@@H]2CC[C@H]1CC(OC(=O)C(CO)c1ccccc1)C2 (stereo partly drawn) [NSC72861]	92.58	
COc1ccc2c(c1)[C@@]13CCN4CC5=CCO[C@H]6CC(=O)N2[C@H]1[C@H]6[C@H]5C[C@H]43 [NSC72862]	85.38	
COc1cc2c(cc1OC)C13CCN4CC5CCOC6CC(=O)N2C1C6C5CC43 (stereo not drawn) [NSC72917]	90.85	
N=C(N)CCNC(=O)C1CCC(N)=N1 (stereo not drawn) [NSC72942]	100.21	
COc1cc(OC)c(C(=O)/C=C/c2ccc(OC)c(OC)c2)c(OC)c1 [NSC75527]	89.20	
COc1ccc2c(=O)oc3c(OC)cc(CCN(C)C)c4c(=O)oc1c2c34 [NSC76022]		AlphaLISA signal in dose-response (at 33 µM): 120%; AlphaLISA signal in dose-response (at 100 µM): 200%
CC[C@@H](O)C[C@H]1CCC[C@@]2(C[C@@H]3OC(=O)/C=C/[C@@](C)(O)[C@@H](O)[C@H](C)[C@@H](O)[C@H](OC4CCC(N(C)C)C(C)O4)[C@@H](O)[C@](C)(O)CCCCC/C=C/[C@@H]4CC(C)(C)O[C@@]4(O)C[C@H](O2)[C@H]3C)O1 (stereo partly drawn) [NSC76627]	52.50	
CC1=C[C@H](O)[C@@H](O)[C@]2(C)[C@H]3[C@@]4(O)OC[C@@]35[C@@H](C[C@@H]12)OC(=O)C[C@H]5[C@@H](C)[C@H]4O [NSC79404]	87.44	
COc1ccc2c3c([nH]c2c1)[C@H]1C[C@H]2[C@H](C[C@@H](O)[C@H](OC)[C@H]2C(=O)O)CN1CC3 [NSC81463]	97.85	
CC1(C)Oc2cc3oc(=O)ccc3c3c2C2C1CCC(C)(O3)C2O (stereo not drawn) [NSC83433]	78.75	
COc1c2c(c3c(c1CCC(=O)O)OC(C)(C)C=C3)OC(C)(C)C=C2 [NSC83436]	100.62	

Compound	IN-GCN2 interaction (%)	other results
C[C@]12CCC(=O)[C@](C)(CO)[C@@H]1CC[C@@]13C[C@@H](CC[C@@H]12)[C@@H](C(=O)O)C3 [NSC83439]	107.59	
C=C1C(=O)O[C@@H]2[C@H]1CC[C@H](C)[C@@H]1C=CC(=O)[C@@]21C [NSC85235]	40.36	
C=C1C(=O)O[C@@H]2C[C@@H](C)[C@@H]3C=CC(=O)[C@@]3(C)[C@@H](O)[C@H]12 [NSC85236]	117.15	
C=C1C(=O)O[C@@H]2[C@H]1CC[C@H](C)[C@]1(O)C=CC(=O)[C@@]21C [NSC85239]	120.23	
CN(N=O)C(=O)N[C@@H](C=O)[C@@H](O)[C@H](O)[C@H](O)CO [NSC85998]	75.18	
COc1cc(C)c2c(c1C=O)Oc1c(c(C)c(O)c3c1C(O)OC3=O)OC2=O (stereo not drawn) [NSC87511]	159.91	
CC1=C(O)C(=O)C(C2=C(O)C(=O)C(C)=C(O)C2=O)=C(O)C1=O [NSC88466]	52.93	
C[C@H]1CCC/C=C/[C@@H]2C[C@H](O)C[C@H]2[C@H](O)/C=C/C(=O)O1 [NSC89671]	129.13	
CC(C)[C@@](O)(C(=O)OCC1=CCN2CC[C@H](O)[C@@H]12)[C@H](C)O [NSC89937]	65.06	
CC[C@]12CN3CCc4c([nH]c5ccccc45)[C@@](C(=O)OC)(c4cc5c(cc4OC)N(C)[C@H]4[C@@](O)(C(=O)OC)[C@H](OC(C)=O)[C@]6(CC)C=CCN7CC[C@]54[C@@H]76)C[C@@H](C3)[C@H]1O2 [NSC90636]	49.62	
O=C1C=C([C@@H]2O[C@H](CO)[C@@H](O)[C@H]2O)C(=O)N1 [NSC93047]	117.57	
C[C@]12CC[C@H]3[C@@H](CC[C@]4(O)C[C@@H](O)CC[C@]34/C=N/O)[C@@]1(O)CC[C@@H]2C1=COC(=O)C1 [NSC93373]	116.21	
COc1cc2c3cc1Oc1c(O)c(OC)cc4c1[C@H](Cc1ccc(cc1)Oc1cc(ccc1O)C[C@H]3N(C)CC2)N(C)CC4 [NSC93674]	63.45	
CC[C@@]1(O)C(=O)OCc2c1cc1n(c2=O)Cc2cc3ccccc3nc2-1 [NSC94600]		IN-GCN2 interaction (%) (listed as 94600): 48.96%
C[C@H]1O[C@@H](O[C@H]2[C@@H](O)C[C@H](O[C@H]3[C@@H](O)C[C@H](O[C@H]4CC[C@@]5(C)[C@H](CC[C@@H]6[C@@H]5CC[C@]5(C)[C@@H](C7=CC(=O)OC7)[C@@H](O)C[C@]65O)C4)O[C@@H]3C)O[C@@H]2C)C[C@H](O)[C@@H]1O [NSC95099]	127.68	
CC(=O)OC1CCC2(C)C(=CCC3C2CCC2(C)C3CC3OC4(CCC(C)CN4)C(C)C32)C1 (stereo not drawn) [NSC96021]	132.69	
Cc1cc2nc3[nH]c(=O)[nH]c(=O)c3nc2cc1C [NSC96911]	89.81	
O=C1CC=C2C3CC4N(CCC45c4ccccc4N1C25)C/C3=C\CO (stereo not drawn) [NSC99791]	109.54	
O=C1C[C@@H]2OCC=C3CN4CC[C@]56c7ccccc7N1[C@H]5[C@H]2[C@H]3C[C@]46O [NSC99792]	109.08	
COc1cc2c(cc1OC)[C@@]13CCN4CC5=CCO[C@H]6CC(=O)N2[C@H]1[C@H]6[C@H]5C[C@]43O [NSC99794]	103.59	
Oc1ccc(Cc2nccc3cc(O)c(O)cc23)cc1O [NSC99799]	58.53	

Compound	IN-GCN2 interaction (%)	other results
N#Cc1cn([C@@H]2O[C@H](CO)[C@@H](O)[C@H]2O)c2ncnc(N)c12 [NSC99843]		IN-GCN2 interaction (%) (listed as 99843): 116.98%
C[C@H]1O[C@H](OC2[C@@H](O)[C@@H](O)C(O)[C@H](O)[C@H]2O)[C@@H](N)C[C@@H]1N=C(N)C(=O)O (stereo partly drawn) [NSC100858]	98.15	
CC[C@@]1(O)C(=O)OCc2c1cc1n(c2=O)Cc2cc3ccccc3nc2-1 [NSC100880]		IN-GCN2 interaction (%) (listed as 100880): 95.24%
Nc1ncn([C@@H]2O[C@H](CO)[C@@H](O)[C@H]2O)c(=O)n1 [NSC102816]	106.78	
C=C1C(=O)O[C@H]2[C@H]1[C@H](OC(=O)/C(C)=C\C)C[C@]1(CO1)[C@@H]1[C@H](OC(C)=O)C=C(C)[C@]21O [NSC104943]	118.84	
CCCCC[C@@H](O)[C@H]1C(=O)O[C@H](C)[C@@H](O)/C=C/C=C/C=C/C=C/C=C(\C)[C@@H](O)[C@H](O)[C@H](O)C[C@H](O)C[C@H](O)C[C@H](O)C[C@H](O)C[C@@H]1O [NSC105388]	86.99	
NC(=S)c1cn(C2OC(CO)C(O)C2O)c2ncnc(N)c12 (stereo not drawn) [NSC105827]	100.77	
O=c1[nH]cnc2c([C@@H]3O[C@H](CO)[C@@H](O)[C@H]3O)[nH]nc12 [NSC106486]	77.11	
COc1ccc(-c2oc3cc(O)c(OC)c(O)c3c(=O)c2OC)cc1O [NSC106969]	98.61	
COC(=O)c1ccc(O)c2nc3c(C=O)c(O)cc(O)c3nc12 [NSC106995]	28.53	
CC(CCC/C=C/CCCN(C)C(=N)N)CC(C)C1OC(=O)C(C)C(O)/C=C/C(C)C(O)C(C)C(O)C(C)C(O)CCCC(O)CC2(O)OC(CC(OC(=O)CC(=O)O)CC(O)CC(O)C(C)C(O)/C=C/C=C/C1C)CC(O)C2O (stereo not drawn) [NSC107041]	57.24	
Cc1ccc(S(=O)(=O)NNC(=O)c2cc(C)c(C)cc2N)cc1 [NSC107453]	88.25	
CCC1CN(C)C2Cc3c([nH]c4ccccc34)C(=O)CC1C2C(=O)OC (stereo not drawn) [NSC108088]	78.52	
N=C1C=C(N)C(=O)c2[nH]c(=O)ccc21 [NSC111041]	43.78	
C[C@@H]1C[C@@H]2CCCC(O)=C2C(=O)O1 [NSC112906]	126.27	
O=C1NC(O)CCN1[C@@H]1O[C@H](CO)[C@@H](O)[C@H]1O (stereo partly drawn) [NSC112907]	123.97	
CC1C(=O)OC2CCN3CC4OC4(COC(=O)C(C)(O)C1(C)O)C23 (stereo not drawn) [NSC113087]	97.53	
CC(=O)O[C@@H]1C[C@H]2C(C)(C)C(=O)C=C[C@]2(C)[C@H]2CC[C@@]3(C)[C@H](c4ccoc4)OC(=O)[C@H]4O[C@]43[C@@]21C [NSC113497]	59.74	
COc1cc(/C=N\O)nc(-c2ccccn2)c1 [NSC114341]	45.21	
CC[C@H](C)c1occ2c(O)c(C(=O)O)c(=O)cc-2c1C [NSC114344]	113.54	
